According to PubChem BioAssay (NCI):
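1) Cells in 96-well plates. 2) Compound, 48 h, 5 concentrations. 3) Linear interpolation between surrounding doses. 4) Unreached endpoint = highest concentration. The concentration for 50% growth inhibition is given as GI50. TGI marks complete inhibition of growth.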

Columns and labels:
Experiment in all cases: NCI-60 cell line screen, 48 h
SW-620 colon = system: SW-620 colon
OVCAR-3 ovarian = system: OVCAR-3 ovarian
OVCAR-4 ovarian = system: OVCAR-4 ovarian
HL-60(TB) leukemia = system: HL-60(TB) leukemia
NCI/ADR-RES ovarian = system: NCI/ADR-RES ovarian
T-47D breast = system: T-47D breast
SF-268 CNS = system: SF-268 CNS
LOX IMVI melanoma = system: LOX IMVI melanoma
HCC-2998 colon = system: HCC-2998 colon
MDA-N = system: MDA-N

Row | Compound | TGI (SW-620 colon) [µM] | TGI (OVCAR-3 ovarian) [µM] | TGI (OVCAR-4 ovarian) [µM] | TGI (HL-60(TB) leukemia) [µM] | TGI (NCI/ADR-RES ovarian) [µM] | TGI (T-47D breast) [µM] | TGI (SF-268 CNS) [µM] | TGI (LOX IMVI melanoma) [µM] | TGI (HCC-2998 colon) [µM] | TGI (MDA-N) [µM] | GI50 (OVCAR-3 ovarian) [µM] | GI50 (LOX IMVI melanoma) [µM] | GI50 (OVCAR-4 ovarian) [µM] | GI50 (HCC-2998 colon) [µM] | GI50 (HL-60(TB) leukemia) [µM] | GI50 (NCI/ADR-RES ovarian) [µM] | GI50 (T-47D breast) [µM]
1 | Nc1nc(N)c2ncn(Cc3ccccc3CCl)c2n1 | > 100 | > 100 | > 100 | > 100 | > 100 | > 100 | > 100 | – | – | – | – | – | – | – | – | – | –
2 | O=c1[nH]c(Nc2cc(Cl)cc(Cl)c2)nc2nc[nH]c12 | > 75 | > 75 | > 75 | – | > 75 | > 75 | > 75 | > 75 | > 75 | > 75 | – | – | – | – | – | – | –
3 | CCCCN1C(=O)c2c(-c3sccc3N)sc(-c3sccc3N)c2C1=O | > 100 | 78.5 | 45.3 | – | > 83.2 | > 100 | > 74.3 | > 100 | > 100 | > 34.6 | – | – | – | – | – | – | –
4 | Fc1ccc2nc3n(c2c1)C(c1c(Cl)cccc1Cl)SC3 (configuration not stated) | > 100 | > 100 | > 100 | – | > 100 | > 100 | > 100 | > 100 | > 100 | > 100 | – | – | – | – | – | – | –
5 | CCOC(=O)C1=C(C)N(c2ccc(C)cc2)C2=C(C(=O)N(c3ccccc3)C2c2ccccc2)C1c1ccccc1 (configuration not stated) | > 25 | > 25 | > 25 | > 25 | – | – | > 25 | > 25 | > 25 | – | – | – | – | – | – | – | –
6 | COc1ccc2oc(OC)c(CC=C(C)C)c(=O)c2c1C | > 100 | > 100 | – | > 100 | > 100 | > 100 | > 100 | > 100 | > 100 | > 100 | – | – | – | – | – | – | –
7 | Cc1ccc(O)c(-c2cc(-c3cccc(Cl)c3)c(C#N)c(N)n2)c1 | 40.8 | > 100 | 41.3 | 68.6 | 90.4 | > 100 | 51.3 | 30.8 | – | 37.8 | – | – | – | – | – | – | –
8 | Cc1c2cnccc2c(C)c2c1c1ccccc1n2CCCCCCNCc1ccccc1 | 1.67 | 4.01 | 1.25 | 9.35 | – | – | 2.76 | 3.81 | 4.86 | – | – | – | – | – | – | – | –
9 | CC(=O)N(O)[C@@H]1CC[C@H](n2cnc3c(N)ncnc32)C1 | > 100 | > 100 | > 100 | – | > 100 | > 100 | > 100 | > 100 | > 100 | > 100 | – | – | – | – | – | – | –
10 | CN1CCC(CN2c3ccccc3Sc3ccccc32)CC1 | 28.6 | 29 | 30.5 | 32.8 | – | – | 29 | 26.4 | 25.6 | – | – | – | – | – | – | – | –
11 | CN(C)c1nncc2[nH]cnc12 | > 100 | > 100 | – | > 100 | > 100 | > 100 | > 100 | – | – | – | – | – | – | – | – | – | –
12 | O=c1[nH]c(=O)n(C2CC(O)C(CO)O2)cc1C1=NC1 (configuration not stated) | > 100 | > 100 | > 100 | – | > 100 | > 100 | > 100 | – | > 100 | > 100 | – | – | – | – | – | – | –
13 | COc1cc(/C=C/C(=O)c2c(C)nc3ccccc3c2C)ccc1OCCCOc1cc2c(cc1OC)C(=O)N1CCC[C@H]1C=N2 | – | 0.0556 | 31.5 | – | 5.92 | – | – | 0.0602 | 0.0386 | – | 0.0247 | 0.0193 | 0.0443 | 0.0183 | 0.0356 | 0.393 | 0.041
14 | CCOC(=O)Cc1nc2sc(S(N)(=O)=O)nn2c1Br | 48 | 98.5 | – | > 100 | > 100 | 70.8 | > 100 | 44.3 | 48.1 | > 100 | – | – | – | – | – | – | –
15 | COc1cc(COC(=O)N(CC(=O)O)c2ccccc2)c([N+](=O)[O-])cc1OC | > 100 | > 100 | – | > 100 | > 100 | > 100 | > 100 | – | > 100 | > 100 | – | – | – | – | – | – | –
16 | Cn1/c(=N\S(=O)(=O)c2ccccc2)n(S(=O)(=O)c2ccccc2)c2ccccc21 | > 100 | > 100 | > 100 | 7.16 | > 100 | > 100 | > 100 | > 100 | – | > 100 | – | – | – | – | – | – | –
17 | CCC1CN2CCc3c([nH]c4ccccc34)C2C[C@@H]1CC(=O)N(C)C (some centres not stated) | > 100 | > 100 | > 100 | > 100 | – | – | > 100 | > 100 | > 100 | – | – | – | – | – | – | – | –
18 | N#CCCN(CCC#N)c1ccc(/C=C2\N=C(c3ccccc3)N(NC(N)=S)C2=O)cc1 | > 100 | > 100 | > 100 | > 100 | > 100 | > 100 | > 100 | > 100 | – | > 100 | – | – | – | – | – | – | –
19 | O=C(/C=C/c1ccc(/C=C/C(=O)c2ccc(O)cc2)cc1)c1ccc(O)cc1 | > 100 | > 100 | – | > 100 | > 100 | > 100 | > 100 | > 100 | > 100 | > 100 | – | – | – | – | – | – | –
20 | O=C1[C@@H]2[C@@H](c3ccccc3)[C@]2(Cl)C(=O)[C@H]2[C@H](c3ccccc3)[C@@]12Cl | > 100 | > 100 | > 100 | > 100 | > 100 | > 100 | > 100 | > 100 | > 100 | – | – | – | – | – | – | – | –
21 | CN(C)c1ccccc1CN1CCCN(Cc2ccccc2N(C)C)C1c1ccncc1 | 42.2 | 28 | 33 | 32.4 | 58 | 38.7 | 37.9 | 28.4 | – | 23.8 | – | – | – | – | – | – | –
22 | O=C(/C=C/c1ccc(O)c(O)c1)c1cc(O)cc(O)c1 | – | 26.4 | 22.2 | – | 47.7 | 29.3 | 42.8 | 18.9 | – | 20.5 | – | – | – | – | – | – | –
23 | CCN1CCN(c2nc3ccc([N+](=O)[O-])cc3nc2C(=O)c2ccccc2)CC1 | 41.7 | 30.6 | – | 61.9 | 29.2 | > 100 | 38 | 17.8 | 28.6 | 33.9 | – | – | – | – | – | – | –
24 | O=C1/C(=C/c2cccc(Br)c2)CSC/C1=C\c1cccc(Br)c1 | 11.2 | 9.98 | 13.1 | – | 25.5 | 21.1 | 24.2 | 4.82 | 3.3 | 6.98 | – | – | – | – | – | – | –
